According to the supplement of paper PMC10307832:

Key:
Assay in all cases: relative viability (nuclei count vs DMSO), 5 days (fraction); higher = more cells survive
EKVX = test system: EKVX
Outline: (§1)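 Cells from lung cancer lines were seeded into 1536-well plates and, one day later, dosed by pin tool. Treatments were either a single drug or a fixed dose of an anchor drug with five library-drug doses (not always all listed) in √10 steps. After 5 days, nuclei were stained in a one-step fixation (final 0.05% Triton X-100, 1% formaldehyde, 1 ug/ml Hoechst) and counted on 4× images, and relative viability is the treated-to-vehicle nuclei ratio, as the median of duplicate plates.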

HCC-827 = test system: HCC-827
Outline: as §1

PC-3 [JPC-3] = test system: PC-3 [JPC-3]
Outline: as §1

NCI-H661 = test system: NCI-H661
Outline: as §1

NCI-H1650 = test system: NCI-H1650
Outline: as §1

NCI-H1975 = test system: NCI-H1975
Outline: as §1

PC-14 = test system: PC-14
Outline: as §1

LK-2 = test system: LK-2
Outline: as §1

RERF-LC-KJ = test system: RERF-LC-KJ
Outline: as §1

H3255 = test system: H3255
Outline: as §1

NCI-H1355 = test system: NCI-H1355
Outline: as §1

NCI-H2405 = test system: NCI-H2405
Outline: as §1

NCI-H2342 = test system: NCI-H2342
Outline: as §1

NCI-H2228 = test system: NCI-H2228
Outline: as §1

CAL-12T = test system: CAL-12T
Outline: as §1

NCI-H520 = test system: NCI-H520
Outline: as §1

HCC-15 = test system: HCC-15
Outline: as §1

NCI-H1734 = test system: NCI-H1734
Outline: as §1

NCI-H1755 = test system: NCI-H1755
Outline: as §1

NCI-H322M = test system: NCI-H322M
Outline: as §1

LCLC-97TM1 = test system: LCLC-97TM1
Outline: as §1

O=c1cc(-c2cccc3c2Sc2ccccc2S3)oc(N2CCOCC2)c1 + CC(=O)c1c(C)c2cnc(Nc3ccc(N4CCNCC4)cn3)nc2n(C2CCCC2)c1=O [Palbociclib] (partner 0.5 µM)
relative viability (EKVX; first compound 0.08 µM): 0.582
relative viability (EKVX; first compound 0.253 µM): 0.657
relative viability (EKVX; first compound 0.8 µM): 0.345
relative viability (EKVX; first compound 2.53 µM): 0.321
relative viability (EKVX; first compound 8 µM): 0.399
relative viability (HCC-827; first compound 0.08 µM): 0.479
relative viability (HCC-827; first compound 0.253 µM): 0.493
relative viability (HCC-827; first compound 0.8 µM): 0.444
relative viability (HCC-827; first compound 2.53 µM): 0.37
relative viability (HCC-827; first compound 8 µM): 0.442
relative viability (PC-3 [JPC-3]; first compound 0.08 µM): 0.471
relative viability (PC-3 [JPC-3]; first compound 0.253 µM): 0.54
relative viability (PC-3 [JPC-3]; first compound 0.8 µM): 0.559
relative viability (PC-3 [JPC-3]; first compound 2.53 µM): 0.482
relative viability (PC-3 [JPC-3]; first compound 8 µM): 0.584
relative viability (NCI-H661; first compound 0.08 µM): 0.416
relative viability (NCI-H661; first compound 0.253 µM): 0.438
relative viability (NCI-H661; first compound 0.8 µM): 0.393
relative viability (NCI-H661; first compound 2.53 µM): 0.394
relative viability (NCI-H661; first compound 8 µM): 0.379
relative viability (NCI-H1650; first compound 0.08 µM): 0.377
relative viability (NCI-H1650; first compound 0.253 µM): 0.38
relative viability (NCI-H1650; first compound 0.8 µM): 0.284
relative viability (NCI-H1650; first compound 2.53 µM): 0.311
relative viability (NCI-H1650; first compound 8 µM): 0.353
relative viability (NCI-H1975; first compound 0.08 µM): 0.623
relative viability (NCI-H1975; first compound 0.253 µM): 0.863
relative viability (NCI-H1975; first compound 0.8 µM): 0.465
relative viability (NCI-H1975; first compound 2.53 µM): 0.564
relative viability (NCI-H1975; first compound 8 µM): 0.744
relative viability (PC-14; first compound 0.08 µM): 0.552
relative viability (PC-14; first compound 0.253 µM): 0.746
relative viability (PC-14; first compound 0.8 µM): 0.578
relative viability (PC-14; first compound 2.53 µM): 0.46
relative viability (PC-14; first compound 8 µM): 0.489
relative viability (LK-2; first compound 0.08 µM): 0.515
relative viability (LK-2; first compound 0.253 µM): 0.8
relative viability (LK-2; first compound 0.8 µM): 0.637
relative viability (LK-2; first compound 2.53 µM): 0.767
relative viability (LK-2; first compound 8 µM): 0.881
relative viability (RERF-LC-KJ; first compound 0.08 µM): 1.11
relative viability (RERF-LC-KJ; first compound 0.253 µM): 1.32
relative viability (RERF-LC-KJ; first compound 0.8 µM): 1.08
relative viability (RERF-LC-KJ; first compound 2.53 µM): 1.04
relative viability (RERF-LC-KJ; first compound 8 µM): 0.971
relative viability (H3255; first compound 0.08 µM): 0.334
relative viability (H3255; first compound 0.253 µM): 0.295
relative viability (H3255; first compound 0.8 µM): 0.305
relative viability (H3255; first compound 2.53 µM): 0.278
relative viability (H3255; first compound 8 µM): 0.33
relative viability (NCI-H1355; first compound 0.08 µM): 0.396
relative viability (NCI-H1355; first compound 0.253 µM): 0.428
relative viability (NCI-H1355; first compound 0.8 µM): 0.371
relative viability (NCI-H1355; first compound 2.53 µM): 0.401
relative viability (NCI-H1355; first compound 8 µM): 0.264
relative viability (NCI-H2405; first compound 0.08 µM): 0.523
relative viability (NCI-H2405; first compound 0.253 µM): 0.534
relative viability (NCI-H2405; first compound 0.8 µM): 0.55
relative viability (NCI-H2405; first compound 2.53 µM): 0.491
relative viability (NCI-H2405; first compound 8 µM): 0.503
relative viability (NCI-H2342; first compound 0.08 µM): 0.52
relative viability (NCI-H2342; first compound 0.253 µM): 0.548
relative viability (NCI-H2342; first compound 0.8 µM): 0.515
relative viability (NCI-H2342; first compound 2.53 µM): 0.522
relative viability (NCI-H2342; first compound 8 µM): 0.575
relative viability (NCI-H2228; first compound 0.08 µM): 0.766
relative viability (NCI-H2228; first compound 0.253 µM): 0.766
relative viability (NCI-H2228; first compound 0.8 µM): 0.901
relative viability (NCI-H2228; first compound 2.53 µM): 0.608
relative viability (NCI-H2228; first compound 8 µM): 0.758
relative viability (CAL-12T; first compound 0.08 µM): 0.369
relative viability (CAL-12T; first compound 0.253 µM): 0.57
relative viability (CAL-12T; first compound 0.8 µM): 0.498
relative viability (CAL-12T; first compound 2.53 µM): 0.404
relative viability (CAL-12T; first compound 8 µM): 0.292
relative viability (NCI-H520; first compound 0.08 µM): 0.233
relative viability (NCI-H520; first compound 0.253 µM): 0.22
relative viability (NCI-H520; first compound 0.8 µM): 0.21
relative viability (NCI-H520; first compound 2.53 µM): 0.243
relative viability (NCI-H520; first compound 8 µM): 0.231
relative viability (HCC-15; first compound 0.08 µM): 0.796
relative viability (HCC-15; first compound 0.253 µM): 0.778
relative viability (HCC-15; first compound 0.8 µM): 0.79
relative viability (HCC-15; first compound 2.53 µM): 0.695
relative viability (HCC-15; first compound 8 µM): 0.636
relative viability (NCI-H1734; first compound 0.08 µM): 0.33
relative viability (NCI-H1734; first compound 0.253 µM): 0.344
relative viability (NCI-H1734; first compound 0.8 µM): 0.414
relative viability (NCI-H1734; first compound 8 µM): 0.357
relative viability (NCI-H1755; first compound 0.08 µM): 0.436
relative viability (NCI-H1755; first compound 0.253 µM): 0.464
relative viability (NCI-H1755; first compound 0.8 µM): 0.463
relative viability (NCI-H1755; first compound 2.53 µM): 0.383
relative viability (NCI-H1755; first compound 8 µM): 0.409
relative viability (NCI-H322M; first compound 0.08 µM): 0.453
relative viability (NCI-H322M; first compound 0.253 µM): 0.474
relative viability (NCI-H322M; first compound 0.8 µM): 0.502
relative viability (NCI-H322M; first compound 2.53 µM): 0.449
relative viability (NCI-H322M; first compound 8 µM): 0.475
relative viability (LCLC-97TM1; first compound 0.08 µM): 0.247
relative viability (LCLC-97TM1; first compound 0.253 µM): 0.26
relative viability (LCLC-97TM1; first compound 0.8 µM): 0.245
relative viability (LCLC-97TM1; first compound 2.53 µM): 0.228
relative viability (LCLC-97TM1; first compound 8 µM): 0.241
